Read-outs that look alike come from different tables or passages of the source.
Experiment: Multiple ascending dose study: plasma pharmacokinetics
Format: in vivo
Settings: human, po; for Tmax: read-out: tmax Median
Procedure: Four sequential cohorts of healthy participants (≥50 years and ≤85 years old) were treated with multiple ascending doses of Compound A up to the maximum tolerated dose (MTD). A total of 6 participants per cohort were randomized to Compound A. Proposed doses of Compound A were:
Participants received Compound A capsules, orally once daily (QD) on Days 1 to 14 after an overnight fast of at least 10 hours. Compound A was administered orally with 240 milliliter (mL) (8 fluid ounces) of water.
1) Maximum drug concentration (Cmax) [Time Frame: Day 1 and Day 14]
Blood samples were collected on Day 1 at predose and postdose 0.5 (30 minutes), 1, 1.5, 2, 3, 4, 5, 6, 8, 12, and 18 hours; Day 14 (at predose and postdose 0.5, 1, 1.5, 2, 3, 4, 5, 6, 8, 12, and 18 hours); and Day 15 (24 hours postdose from Day 14).
2) Mean time to reach maximum (peak) drug concentration (tmax) [Time Frame: Day 1 and Day 14]
4) Mean area under the concentration-time curve from zero time extrapolated to infinity (AUC(0-inf)) [Time Frame: Day 14]

COc1ncc(C)c(-c2ccc3c(c2)[nH]c(=O)c2cnn([C@H]4CCOC4)c23)c1C [Compound A, (S)-7-(2-methoxy-3,5-dimethylpyridin-4-yl)-1-(tetrahydrofuran-3-yl)-1H-pyrazolo[4,3-c]quin olin-4(5H)-one]
AUC(0-t) (5 mg, Day 1, 5 mg QD oral, read-out: AUC(0-24 h) GM (% CV)): 0.344 µg·h/mL
AUC(0-t) (5 mg, Day 1, 5 mg QD oral, read-out: AUC(0-24 h) Mean (SD)): 0.352 µg·h/mL
AUC(0-t) (5 mg, Day 1, 5 mg QD oral, read-out: AUC(0-24 h) Median): 0.34 µg·h/mL
Cmax (5 mg, Day 1, 5 mg QD oral, read-out: Cmax GM (% CV)): 0.0263 µg/mL
Cmax (5 mg, Day 1, 5 mg QD oral, read-out: Cmax Mean (SD)): 0.0274 µg/mL
Cmax (5 mg, Day 1, 5 mg QD oral, read-out: Cmax Median): 0.0266 µg/mL
Tmax (5 mg, Day 1, 5 mg QD oral): 4 h
AUC(0-t) (5 mg, Day 14, 5 mg QD oral, read-out: AUC(0-24 h) GM (% CV)): 0.844 µg·h/mL
AUC(0-t) (5 mg, Day 14, 5 mg QD oral, read-out: AUC(0-24 h) Mean (SD)): 0.864 µg·h/mL
AUC(0-t) (5 mg, Day 14, 5 mg QD oral, read-out: AUC(0-24 h) Median): 0.773 µg·h/mL
AUC(0-inf) (5 mg, Day 14, 5 mg QD oral, read-out: AUC(0-inf) GM (% CV)): 2.38 µg·h/mL
AUC(0-inf) (5 mg, Day 14, 5 mg QD oral, read-out: AUC(0-inf) Mean (SD)): 2.48 µg·h/mL
AUC(0-inf) (5 mg, Day 14, 5 mg QD oral, read-out: AUC(0-inf) Median): 2.51 µg·h/mL
Cmax (5 mg, Day 14, 5 mg QD oral, read-out: Cmax GM (% CV)): 0.0586 µg/mL
Cmax (5 mg, Day 14, 5 mg QD oral, read-out: Cmax Mean (SD)): 0.0617 µg/mL
Cmax (5 mg, Day 14, 5 mg QD oral, read-out: Cmax Median): 0.0494 µg/mL
Tmax (5 mg, Day 14, 5 mg QD oral): 4 h
AUC(0-t) (10 mg, Day 1, 10 mg QD oral, read-out: AUC(0-24 h) GM (% CV)): 0.781 µg·h/mL
AUC(0-t) (10 mg, Day 1, 10 mg QD oral, read-out: AUC(0-24 h) Mean (SD)): 0.784 µg·h/mL
AUC(0-t) (10 mg, Day 1, 10 mg QD oral, read-out: AUC(0-24 h) Median): 0.735 µg·h/mL
Cmax (10 mg, Day 1, 10 mg QD oral, read-out: Cmax GM (% CV)): 0.0655 µg/mL
Cmax (10 mg, Day 1, 10 mg QD oral, read-out: Cmax Mean (SD)): 0.0662 µg/mL
Cmax (10 mg, Day 1, 10 mg QD oral, read-out: Cmax Median): 0.0658 µg/mL
Tmax (10 mg, Day 1, 10 mg QD oral): 2 h
AUC(0-t) (10 mg, Day 14, 10 mg QD oral, read-out: AUC(0-24 h) GM (% CV)): 1.9 µg·h/mL
AUC(0-t) (10 mg, Day 14, 10 mg QD oral, read-out: AUC(0-24 h) Mean (SD)): 1.94 µg·h/mL
AUC(0-t) (10 mg, Day 14, 10 mg QD oral, read-out: AUC(0-24 h) Median): 1.98 µg·h/mL
AUC(0-inf) (10 mg, Day 14, 10 mg QD oral, read-out: AUC(0-inf) GM (% CV)): 5.1 µg·h/mL
AUC(0-inf) (10 mg, Day 14, 10 mg QD oral, read-out: AUC(0-inf) Mean (SD)): 5.26 µg·h/mL
AUC(0-inf) (10 mg, Day 14, 10 mg QD oral, read-out: AUC(0-inf) Median): 5.36 µg·h/mL
Cmax (10 mg, Day 14, 10 mg QD oral, read-out: Cmax GM (% CV)): 0.135 µg/mL
Cmax (10 mg, Day 14, 10 mg QD oral, read-out: Cmax Mean (SD)): 0.137 µg/mL
Cmax (10 mg, Day 14, 10 mg QD oral, read-out: Cmax Median): 0.144 µg/mL
Tmax (10 mg, Day 14, 10 mg QD oral): 1.5 h
AUC(0-t) (25 mg, Day 1, 25 mg QD oral, read-out: AUC(0-24 h) GM (% CV)): 1.65 µg·h/mL
AUC(0-t) (25 mg, Day 1, 25 mg QD oral, read-out: AUC(0-24 h) Mean (SD)): 1.67 µg·h/mL
AUC(0-t) (25 mg, Day 1, 25 mg QD oral, read-out: AUC(0-24 h) Median): 1.7 µg·h/mL
Cmax (25 mg, Day 1, 25 mg QD oral, read-out: Cmax GM (% CV)): 0.125 µg/mL
Cmax (25 mg, Day 1, 25 mg QD oral, read-out: Cmax Mean (SD)): 0.129 µg/mL
Cmax (25 mg, Day 1, 25 mg QD oral, read-out: Cmax Median): 0.136 µg/mL
Tmax (25 mg, Day 1, 25 mg QD oral): 3.01 h
AUC(0-t) (25 mg, Day 14, 25 mg QD oral, read-out: AUC(0-24 h) GM (% CV)): 5.14 µg·h/mL
AUC(0-t) (25 mg, Day 14, 25 mg QD oral, read-out: AUC(0-24 h) Mean (SD)): 5.21 µg·h/mL
AUC(0-t) (25 mg, Day 14, 25 mg QD oral, read-out: AUC(0-24 h) Median): 4.76 µg·h/mL
AUC(0-inf) (25 mg, Day 14, 25 mg QD oral, read-out: AUC(0-inf) GM (% CV)): 15.4 µg·h/mL
AUC(0-inf) (25 mg, Day 14, 25 mg QD oral, read-out: AUC(0-inf) Mean (SD)): 16.2 µg·h/mL
AUC(0-inf) (25 mg, Day 14, 25 mg QD oral, read-out: AUC(0-inf) Median): 14 µg·h/mL
Cmax (25 mg, Day 14, 25 mg QD oral, read-out: Cmax GM (% CV)): 0.332 µg/mL
Cmax (25 mg, Day 14, 25 mg QD oral, read-out: Cmax Mean (SD)): 0.336 µg/mL
Cmax (25 mg, Day 14, 25 mg QD oral, read-out: Cmax Median): 0.318 µg/mL
Tmax (25 mg, Day 14, 25 mg QD oral): 3 h
AUC(0-t) (50 mg, Day 1, 50 mg QD oral, read-out: AUC(0-24 h) GM (% CV)): 2.97 µg·h/mL
AUC(0-t) (50 mg, Day 1, 50 mg QD oral, read-out: AUC(0-24 h) Mean (SD)): 3.11 µg·h/mL
AUC(0-t) (50 mg, Day 1, 50 mg QD oral, read-out: AUC(0-24 h) Median): 3.06 µg·h/mL
Cmax (50 mg, Day 1, 50 mg QD oral, read-out: Cmax GM (% CV)): 0.214 µg/mL
Cmax (50 mg, Day 1, 50 mg QD oral, read-out: Cmax Mean (SD)): 0.237 µg/mL
Cmax (50 mg, Day 1, 50 mg QD oral, read-out: Cmax Median): 0.226 µg/mL
Tmax (50 mg, Day 1, 50 mg QD oral): 3.53 h
AUC(0-t) (50 mg, Day 14, 50 mg QD oral, read-out: AUC(0-24 h) GM (% CV)): 11.5 µg·h/mL
AUC(0-t) (50 mg, Day 14, 50 mg QD oral, read-out: AUC(0-24 h) Mean (SD)): 11.8 µg·h/mL
AUC(0-t) (50 mg, Day 14, 50 mg QD oral, read-out: AUC(0-24 h) Median): 10.9 µg·h/mL
AUC(0-inf) (50 mg, Day 14, 50 mg QD oral, read-out: AUC(0-inf) GM (% CV)): 38.6 µg·h/mL
AUC(0-inf) (50 mg, Day 14, 50 mg QD oral, read-out: AUC(0-inf) Mean (SD)): 40.7 µg·h/mL
AUC(0-inf) (50 mg, Day 14, 50 mg QD oral, read-out: AUC(0-inf) Median): 38.1 µg·h/mL
Cmax (50 mg, Day 14, 50 mg QD oral, read-out: Cmax GM (% CV)): 0.778 µg/mL
Cmax (50 mg, Day 14, 50 mg QD oral, read-out: Cmax Mean (SD)): 0.788 µg/mL
Cmax (50 mg, Day 14, 50 mg QD oral, read-out: Cmax Median): 0.807 µg/mL
Tmax (50 mg, Day 14, 50 mg QD oral): 1.5 h
AUC(0-t) (50 mg, Part C, 50 mg oral, read-out: AUC (0-24 h) GM (% CV)): 10.5 µg·h/mL
AUC(0-t) (50 mg, Part C, 50 mg oral, read-out: AUC (0-24 h) Mean (SD)): 10.8 µg·h/mL
AUC(0-t) (50 mg, Part C, 50 mg oral, read-out: AUC (0-24 h) Median): 10.6 µg·h/mL

— patent publication US20220378706A1, “PHARMACEUTICAL COMPOSITION COMPRISING PDE9 INHIBITOR” (Eisai R&D Management Co., Ltd., priority 2017, published 2022)
